From patent US12410136B2, “Pyridinyl morpholine compound, preparation method therefor, and application thereof” (SHANGHAI ZHONGZE THERAPEUTICS, CO. LTD., priority 2020, dated 2025)

Key:
[1] = molecular target: T1, human recombinant D3 receptor (Homo sapiens, UniProt P35462); assay: Dopamine D3 receptor binding test; conditions: [3H]methyl-spiperone 0.3 nM, human recombinant D3 receptor expressed in CHO cells; read-out: Affinity of the compound for each receptor (Ki value, nM) D3
T1 construct: expressed in transfected cells; host or cells: CHO
Method: Dopamine D3 Receptor Binding Test
[^3H]methyl-spiperone (0.3 nM) was used as the ligand, and (+)-butaclamol (10 μM) was used to determine the non-specific binding, and the binding assay was performed on human recombinant D3 receptor (expressed in CHO cells).

5-HT2A receptor = molecular target: T2, 5-HT2A receptor (Homo sapiens, UniProt P28223); assay: 5-HT2A receptor binding test; conditions: [3H]-Ketanserin, 5-HT2A receptor expressed in HEK293 cells; read-out: Affinity of the compound for each receptor (Ki value, nM) 5-HT2A
T2 construct: expressed in transfected cells; host or cells: HEK293
Text: 5-HT2A Receptor Binding Test
Beckman LS-6500 multifunctional liquid scintillation counter.
Tris-HCl reaction buffer (pH 7.7) was used to resuspend in the experiment.

H1 receptor = molecular target: T3, H1 receptor (Homo sapiens, UniProt P35367); assay: H1 receptor binding test; conditions: 1 nM [3H]pyrilamine, HEK-293 cell membrane homogenate; read-out: Affinity of the compound for H1 receptor (Ki value, nM) H1
T3 construct: expressed in transfected cells; host or cells: HEK-293
Method: Non-specific binding was determined in the presence of 1 μM pyrilamine.

D2 receptor = D2 receptor (Homo sapiens, UniProt P14416); assay: Dopamine D2 receptor binding test
Chain of D2 receptor (P14416 whole entry): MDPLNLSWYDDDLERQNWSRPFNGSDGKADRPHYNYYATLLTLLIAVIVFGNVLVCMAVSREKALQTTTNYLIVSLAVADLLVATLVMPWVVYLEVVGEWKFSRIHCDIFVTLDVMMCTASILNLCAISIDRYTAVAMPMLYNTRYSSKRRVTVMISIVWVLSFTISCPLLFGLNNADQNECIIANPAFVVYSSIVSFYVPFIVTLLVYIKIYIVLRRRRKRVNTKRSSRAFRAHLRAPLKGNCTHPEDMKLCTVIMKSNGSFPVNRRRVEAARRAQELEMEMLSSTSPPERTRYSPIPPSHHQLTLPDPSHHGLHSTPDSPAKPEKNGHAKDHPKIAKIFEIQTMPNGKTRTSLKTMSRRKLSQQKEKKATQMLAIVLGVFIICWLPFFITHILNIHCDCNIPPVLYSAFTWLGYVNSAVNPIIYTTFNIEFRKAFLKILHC
Method: Dopamine D2 Receptor Binding Test
In this experiment, HEK293 cells were transfected with plasmid vector containing D2 receptor protein gene, and calcium phosphate transfection method was used and after transfection, the cells were cultured in a culture solution containing G418, and the cell monoclonal and radioligand binding experiments were selected, and finally a stable cell line which could stably express D2 receptor protein was obtained.
HeK-293 cells were infected with recombinant viruses containing the above various genes respectively, and after 48-72 hours, the receptor proteins were expressed in large quantities on the membrane, and the cells were centrifuged at 1000 rpm for 5 min and then the culture solution was discarded, and the cells were collected, and stored in a −20° C. refrigerator for later use. Tris-HCl reaction buffer (pH=7.5) was used to resuspend in the experiment.
On the Millipore cell sample collector, the mixture was quickly filtrated under reduced pressure through GF/C glass fiber filter paper, and eluted with 3 mL of eluent (50 mMTris-HCl, pH 7.5) for 3 times, then dried under microwave for 5 to 6 min. The filter paper was moved into a 0.5 mL centrifuge tube, and 500 μL of lipid-soluble scintillation solution was added. The mixture was kept in the dark for more than 30 min, and the radioactivity intensity was determined by counting. […] Two replicate tubes were made for each experiment of compound, and two separate experiments were performed.
Two tubes were tested for each concentration and two independent tests were performed for each compound.

T2 sequence (P28223 whole entry): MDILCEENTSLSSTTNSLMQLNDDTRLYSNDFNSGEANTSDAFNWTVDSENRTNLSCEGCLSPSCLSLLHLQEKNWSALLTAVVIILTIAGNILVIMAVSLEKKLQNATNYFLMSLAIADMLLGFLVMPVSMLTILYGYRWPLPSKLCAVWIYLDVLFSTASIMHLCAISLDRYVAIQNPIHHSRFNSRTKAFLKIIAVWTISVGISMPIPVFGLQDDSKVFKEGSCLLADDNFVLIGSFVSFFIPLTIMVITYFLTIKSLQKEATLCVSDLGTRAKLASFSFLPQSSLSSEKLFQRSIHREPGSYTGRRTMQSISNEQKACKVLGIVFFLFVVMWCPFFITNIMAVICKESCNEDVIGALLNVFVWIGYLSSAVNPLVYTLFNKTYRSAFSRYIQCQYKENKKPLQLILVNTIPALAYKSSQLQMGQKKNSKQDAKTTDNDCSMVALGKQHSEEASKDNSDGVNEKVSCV
T1 sequence (P35462 whole entry): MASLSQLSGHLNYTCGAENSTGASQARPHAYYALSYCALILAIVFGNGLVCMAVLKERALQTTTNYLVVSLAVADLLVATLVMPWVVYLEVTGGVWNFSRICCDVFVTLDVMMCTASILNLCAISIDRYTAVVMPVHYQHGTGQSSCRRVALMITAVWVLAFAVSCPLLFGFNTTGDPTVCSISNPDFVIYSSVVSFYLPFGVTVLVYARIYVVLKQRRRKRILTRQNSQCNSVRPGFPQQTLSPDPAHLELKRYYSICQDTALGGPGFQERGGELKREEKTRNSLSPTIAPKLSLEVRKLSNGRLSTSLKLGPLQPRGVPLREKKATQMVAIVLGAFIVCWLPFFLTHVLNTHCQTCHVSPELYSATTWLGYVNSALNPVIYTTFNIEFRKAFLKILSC
T3 sequence (P35367 whole entry): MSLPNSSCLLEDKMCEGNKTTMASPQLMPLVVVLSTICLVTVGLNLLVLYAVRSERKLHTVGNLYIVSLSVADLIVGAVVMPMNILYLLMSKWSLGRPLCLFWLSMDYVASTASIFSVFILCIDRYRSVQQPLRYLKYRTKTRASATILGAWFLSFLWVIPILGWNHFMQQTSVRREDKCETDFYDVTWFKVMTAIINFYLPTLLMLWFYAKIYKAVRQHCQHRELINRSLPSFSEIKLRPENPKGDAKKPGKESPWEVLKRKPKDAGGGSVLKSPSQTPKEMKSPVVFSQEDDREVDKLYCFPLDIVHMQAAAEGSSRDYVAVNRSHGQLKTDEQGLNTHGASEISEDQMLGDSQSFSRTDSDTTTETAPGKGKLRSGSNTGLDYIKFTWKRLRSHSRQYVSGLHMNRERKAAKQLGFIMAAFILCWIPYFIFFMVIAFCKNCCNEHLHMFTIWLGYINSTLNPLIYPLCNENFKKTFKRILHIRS

Structure (SMILES)	Ki [1] [nM]	Ki (5-HT2A receptor) [nM]	Ki (H1 receptor) [nM]	Ki (D2 receptor) [nM]
COc1ccc(-c2cc(N3CCOCC3)nc(N3CCN(CC[C@H]4CC[C@H](NC(=O)N5CCOCC5)CC4)CC3)c2)cc1 [III-2, N-(trans-4-(2-(4-(4-(4-methoxyphenyl)-6-morpholinopyridin-2-yl)piperazin-1-yl)ethyl)cyclohexyl)morpholine-4-carboxamide]	0.07	5.1	> 1000	1.9
CC(=O)N[C@H]1CC[C@H](CCN2CCN(c3cc(-c4ccccc4)cc(N4CCOCC4)n3)CC2)CC1 [Compound I-1, N-(trans-4-(2-(4-(6-morpholino-4-phenylpyridin-2-yl)piperazin-1-yl)ethyl)cyclohexyl)acetamide]	0.2	1.7	760	3.1
CN(C)C(=O)N[C@H]1CC[C@H](CCN2CCN(c3cc(-c4ccccc4)cc(N4CCOCC4)n3)CC2)CC1 [Compound I-7, 1,1-dimethyl-3-(trans-4-(2-(4-(6-morpholino-4-phenylpyridin-2-yl)piperazin-1-yl)ethyl)cyclohexyl)urea]	0.01	0.2	420	0.12
COc1ccc(-c2cc(N3CCOCC3)nc(N3CCN(CC[C@H]4CC[C@H](NC(=O)N5CCCC5)CC4)CC3)c2)cc1 [III-1, N-(trans-4-(2-(4-(4-(4-methoxyphenyl)-6-morpholinopyridin-2-yl)piperazin-1-yl)ethyl)cyclohexyl)tetrahydropyrrole-1-carboxamide]	0.2	10.8	> 1000	3.2
CN(C)C(=O)N[C@H]1CC[C@H](CCN2CCN(c3cc(-c4ccc(F)cc4)cc(N4CCOCC4)n3)CC2)CC1 [II-5, 3-(trans-4-(2-(4-(4-(4-fluorophenyl)-6-morpholinopyridin-2-yl)piperazin-1-yl)ethyl)cyclohexyl)-1,1-dimethylurea]	–	–	300	–
COCC(=O)N[C@H]1CC[C@H](CCN2CCN(c3cc(-c4ccco4)cc(N4CCOCC4)n3)CC2)CC1 [Compound V-2, N-(trans-4-(2-(4-(4-(furan-2-yl)-6-morpholinopyridin-2-yl)piperazin-1-yl)ethyl)cyclohexyl)-2-methoxyacetamide]	–	8.8	740	15.2
O=C(N[C@H]1CC[C@H](CCN2CCN(c3cc(-c4ccccc4)cc(N4CCOCC4)n3)CC2)CC1)C1CC1 [Compound I-4, N-((trans)-4-(2-(4-(6-morpholino-4-phenylpyridin-2-yl)piperazin-1-yl)ethyl)cyclohexyl)cyclopropanecarboxamide]	0.05	3.9	550	2
CC(=O)N[C@H]1CC[C@H](CCN2CCN(c3cc(-c4ccco4)cc(N4CCOCC4)n3)CC2)CC1 [Compound V-1, N-(trans-4-(2-(4-(4-(furan-2-yl)-6-morpholinopyridin-2-yl)piperazin-1-yl)ethyl)cyclohexyl)acetamide]	0.7	1.6	530	8.1
CCCC(=O)N[C@H]1CC[C@H](CCN2CCN(c3cc(-c4ccccc4)cc(N4CCOCC4)n3)CC2)CC1 [Compound I-2, N-(trans-4-(2-(4-(6-morpholino-4-phenylpyridin-2-yl)piperazin-1-yl)ethyl)cyclohexyl)butyramide]	0.1	1.9	950	1.2
O=C(N[C@H]1CC[C@H](CCN2CCN(c3cc(-c4ccc(F)cc4)cc(N4CCOCC4)n3)CC2)CC1)c1ccccc1 [II-1, N-(trans-4-(2-(4-(4-(4-fluorophenyl)-6-morpholinopyridin-2-yl)piperazin-1-yl)ethyl)cyclohexyl)benzamide]	0.2	2.3	670	1.7
CNC(=O)N[C@H]1CC[C@H](CCN2CCN(c3cc(-c4ccc(F)cc4)cc(N4CCOCC4)n3)CC2)CC1 [II-4, 1-(trans-4-(2-(4-(4-(4-fluorophenyl)-6-morpholinopyridin-2-yl)piperazin-1-yl)ethyl)cyclohexyl)-3-methylurea]	0.3	0.9	540	2.8
O=C(N[C@H]1CC[C@H](CCN2CCN(c3cc(-c4ccc(F)cc4)cc(N4CCOCC4)n3)CC2)CC1)c1ccco1 [II-3, N-(trans-4-(2-(4-(4-(4-fluorophenyl)-6-morpholinopyridin-2-yl)piperazin-1-yl)ethyl)cyclohexyl)furan-2-carboxamide]	0.09	1.2	980	1.4
O=C(N[C@H]1CC[C@H](CCN2CCN(c3cc(-c4ccco4)cc(N4CCOCC4)n3)CC2)CC1)N1CCCCC1 [Compound V-4, N-(trans-4-(2-(4-(4-(furan-2-yl)-6-morpholinopyridin-2-yl)piperazin-1-yl)ethyl)cyclohexyl)piperidine-1-carboxamide]	0.3	2.8	> 1000	10.6
O=C(N[C@H]1CC[C@H](CCN2CCN(c3cc(-c4ccccc4)cc(N4CCOCC4)n3)CC2)CC1)C1CCCCC1 [Compound I-5]	0.9	1.1	> 1000	8.6
CN(C)C(=O)N[C@H]1CC[C@H](CCN2CCN(c3cc(-c4ccco4)cc(N4CCOCC4)n3)CC2)CC1 [Compound V-3, 3-(trans-4-(2-(4-(4-(furan-2-yl)-6-morpholinopyridin-2-yl)piperazin-1-yl)ethyl)cyclohexyl)-1,1-dimethylurea]	0.07	5	800	7.1

More lines, now with the values ahead:

Ki [1] [nM]	Ki (5-HT2A receptor) [nM]	Ki (H1 receptor) [nM]	Ki (D2 receptor) [nM]	Structure (SMILES)
0.1	0.9	590	2	CN(C)C(=O)N[C@H]1CC[C@H](CCN2CCN(c3cc(-c4cccs4)cc(N4CCOCC4)n3)CC2)CC1 [VI-4, 1,1-dimethyl-3-(trans-4-(2-(4-(6-morpholino-4-(thiophen-2-yl)pyridin-2-yl)piperazin-1-yl)ethyl)cyclohexyl)urea]
0.1	0.7	600	2.6	O=C(N[C@H]1CC[C@H](CCN2CCN(c3cc(-c4ccc[nH]4)cc(N4CCOCC4)n3)CC2)CC1)c1ccco1 [VII-2, N-(trans-4-(2-(4-(6-morpholino-4-(1H-pyrrol-2-yl)pyridin-2-yl)piperazin-1-yl)ethyl)cyclohexyl)furan-2-carboxamide]
0.08	8.7	670	1.7	CC(C)N(C(=O)N[C@H]1CC[C@H](CCN2CCN(c3cc(-c4cccnc4)cc(N4CCOCC4)n3)CC2)CC1)C(C)C [IV-4]
0.1	3.6	790	2	CN(C)C(=O)N[C@H]1CC[C@H](CCN2CCN(c3cc(-c4cccnc4)cc(N4CCOCC4)n3)CC2)CC1 [IV-3]
0.05	2.7	> 1000	2.5	CCC(=O)N[C@H]1CC[C@H](CCN2CCN(c3cc(-c4cccnc4)cc(N4CCOCC4)n3)CC2)CC1 [IV-1]
0.28	3.2	460	4.5	CCC(=O)N[C@H]1CC[C@H](CCN2CCN(c3cc(-c4ccc[nH]4)cc(N4CCOCC4)n3)CC2)CC1 [VII-1, N-(trans-4-(2-(4-(6-morpholino-4-(1H-pyrrol-2-yl)pyridin-2-yl)piperazin-1-yl)ethyl)cyclohexyl)propionamide]
0.5	12.5	> 1000	4.6	COc1ccc(-c2cc(N3CCOCC3)nc(N3CCN(CC[C@H]4CC[C@H](NC(=O)N5CCCCC5)CC4)CC3)c2)cc1 [III-3, N-(trans-4-(2-(4-(4-(4-methoxyphenyl)-6-morpholinopyridin-2-yl)piperazin-1-yl)ethyl)cyclohexyl)piperidine-1-carboxamide]
0.3	7.9	> 1000	4	O=C(N[C@H]1CC[C@H](CCN2CCN(c3cc(-c4ccc[nH]4)cc(N4CCOCC4)n3)CC2)CC1)N1CCCCC1 [VII-5, N-(trans-4-(2-(4-(6-morpholino-4-(1H-pyrrol-2-yl)pyridin-2-yl)piperazin-1-yl)ethyl)cyclohexyl)piperidine-1-carboxamide]
–	6.6	980	11.8	COc1ccc(-c2cc(N3CCOCC3)nc(N3CCN(CC[C@H]4CC[C@H](NC(=O)N5CCN(C)CC5)CC4)CC3)c2)cc1 [III-4, N-(trans-4-(2-(4-(4-(4-methoxyphenyl)-6-morpholinopyridin-2-yl)piperazin-1-yl)ethyl)cyclohexyl)-4-methylpiperazine-1-carboxamide]
–	3.8	870	5.1	O=C(N[C@H]1CC[C@H](CCN2CCN(c3cc(-c4ccc[nH]4)cc(N4CCOCC4)n3)CC2)CC1)C1CCCCC1 [VII-3, N-(trans-4-(2-(4-(6-morpholino-4-(1H-pyrrol-2-yl)pyridin-2-yl)piperazin-1-yl)ethyl)cyclohexyl)cyclohexanecarboxamide]
0.08	2.1	> 1000	1.3	O=C(N[C@H]1CC[C@H](CCN2CCN(c3cc(-c4cccs4)cc(N4CCOCC4)n3)CC2)CC1)C1CC1 [VI-2, N-(trans-4-(2-(4-(6-morpholino-4-(thiophen-2-yl)pyridin-2-yl)piperazin-1-yl)ethyl)cyclohexyl)cyclopropanecarboxamide]
